Test results as given in patent publication US11414379B2, “SPAK kinase inhibitors as neuroprotective agents” (United States Government as represented by the Department …, priority 2018, dated 2022).

Tests used:
[1] = tested on: Ang II-mediated hypertensive mice, pdMCAO; assay: Infarct volume and hemispheric swelling after pdMCAO in Ang II-infused mice; type: in vivo, mouse; settings: Ang II-infused mice (male or female); 2.5 mg/kg i.p. at 3 and 8 hrs after pdMCAO; 24 hrs; vs Veh
Protocol: C57BL/6J mice received subcutaneous (s.c.) infusion of either saline or AngII via osmotic minipumps (model 1004, Alzet) at a rate of 1000 ng/kg/min for 14 days. BP was measured in awake mice by a tail-cuff method (Kent Scientific) as described previously (Huang et al. (2019) Stroke. 50:1021-1025).
Saline-infused control and Ang II-mediated HTN mice were subsequently underwent permanent occlusion of the distal branches of the middle cerebral artery (pdMCAO) as described previously (Huang et al. (2019) Stroke. 50:1021-1025). Under isoflurane anesthesia, a skin incision at the midline of the neck was made and the left CCA was exposed and occluded by ligation and the skin was sutured. Another skin incision (1 cm) was made between the left eye and the ear using fine operation scissors. The temporal muscle was identified and detached from the skull in its apical and dorsal part without totally removing the muscle by the forceps. The MCA below the transparent skull in the rostral part of the temporal area, dorsal to the retro-orbital sinus was identified. If the MCA bifurcation was not visible (due to an anatomical normal variation), the most rostral vessel was identified. […] The artery, proximal and distal to the MCA bifurcation, was coagulated with the electrocoagulation forceps (in a bipolar mode at 7 W). […] The animal was placed in a cage and monitored for recovery from anesthesia. […]

KCC2 pThr1007 = assay: Phosphorylation immunoblot in KCC2-transfected HEK293 cells; type: cell-based, human; settings: concentration inhibiting phosphorylation
Protocol: HEK293 (human embryonic kidney 293) cells were cultured on 10-cm-diameter dishes in DMEM supplemented with 10% (v/v) foetal bovine serum, 2 mM L-glutamine, 100 U/ml penicillin and 0.1 mg/ml streptomycin. HEK293 cells were transfected with a mixture of 20 μl of 1 mg/ml polyethylenimine (Polysciences) and 5-10 μg of plasmid DNA as described previously (Durocher et al., 2002). 36 hours post-transfection cells were stimulated with either control isotonic or hypotonic medium for a period of 30 minutes. Cells were lysed in 0.3 mL of ice-cold lysis buffer/dish, lysates were clarified by centrifugation at 4° C. for 15 minutes at 26,000 g and the supernatant aliquots were frozen in liquid nitrogen and stored at −20° C. Protein concentrations were determined using the Bradford method. Cells were treated with the indicated concentrations of the SPAK/OSR1 inhibitors. […] Hypotonic low chloride buffer was 67.5 mM sodium-gluconate, 2.5 mM potassium-gluconate, 0.25 mM CaCl2), 0.25 mM MgCl2, 0.5 mM Na2HPO4, 0.5 mM Na2SO4 and 7.5 mM HEPES (pH 7.5).
The membranes were incubated for 30 min with TBST (Tris-buffered saline, 0.05% Tween-20) containing 5% (w/v) skim milk. The blots were then washed six times with TBST and incubated for 1 hour at room temperature with secondary HRP-conjugated antibodies diluted 5000-fold in 5% (w/v) skim milk in TBST. After repeating the washing steps, signals were detected with enhanced chemiluminescence reagent. Immunoblots were developed using a film automatic processor (SRX-101; Konica Minolta Medical) and films were scanned at 600 dpi (PowerLook 1000; UMAX). Figures were generated using Photoshop/Illustrator (Adobe). The densities of bands were measured with ImageJ. For phospho-antibody immunoprecipitation, KCC isoforms were immunoprecipitated from indicated cell extracts. 2 mg of the indicated clarified cell extract were mixed with 15 μg of the indicated phospho-specific KCC antibody conjugated to 15 μl of protein-G-Sepharose, in the added presence of […] of the dephosphorylated form of the phosphopeptide antigen, and incubated 2 hours at 4° C. with gentle shaking. Immunoprecipitates were washed three times with 1 mL of lysis buffer containing 0.15 M NaCl and twice with 1 ml of buffer A. Bound proteins were eluted with 1×LDS sample buffer.
HEK293 cells were transfected with a DNA construct encoding wild type N-terminally FLAG-tagged KCC2. 36 hrs post-transfection, cells were exposed 30 min to either control isotonic or hypotonic low [C1^−] conditions, then treated in the same conditions for an additional 30 min with the indicated inhibitors at the concentrations noted. Cell lysates were subjected to SDS-PAGE and Western blotting with the indicated antibodies. See FIG. 3 for Western blot quantitation.
Referring to FIG. 2, concentration-response experiments testing effects of Closantel analogs on phosphorylation of KCC2 Thr906/Thr1007 are shown. HEK293 cells were transfected with DNA construct encoding wild type N-terminally FLAG-tagged KCC2. 36 h post-transfection, cells were exposed 30 min to either control isotonic conditions or hypotonic low Cl^− conditions, then treated in the same conditions with the specified inhibitors (1b, 1c, 1f, 1d, 1h, and 1g, respectively) at the indicated concentrations for an additional 30 min. Lysates were subjected to SDS-PAGE and Western blotting with the indicated antibodies.
Referring to FIG. 3, HEK293 cells were transfected with the DNA construct encoding wild type N-terminally FLAG-tagged KCC2. 36 h post-transfection, cells were exposed 30 min to either control isotonic or hypotonic low Cl^− conditions, then treated in the same conditions with the specified inhibitors at the indicated concen-trations for an additional 30 min. Lysates were subjected to SDS-PAGE and Western blotting with the indicated antibodies. Closantel, STOCK1S-14279 and STOCK1S-50699 were used as reference compounds.

pNKCC1 = assay: IVH-induced phosphorylation in rat choroid plexus, ICV delivery; type: in vivo; settings: 48 hrs post-IVH, n=3

## Cc1cc(C(C#N)c2ccc(Cl)cc2)c(Cl)cc1NC(=O)c1cc(Cl)ccc1O (centres unmarked) [ZT-1a, 5-chloro-N-(5-chloro-4-((4-chlorophenyl)(cyano)methyl)-2-methylphenyl)-2-hydroxy-benzamide]
[1]
  decrease of hemispheric swelling: ~50%
  decrease of infarct volume: ~50%
KCC2 pThr1007; hypotonic low Cl- conditions
  KCC2 pThr1007 (μM) hypo: 3 μM
KCC2 pThr1007; isotonic conditions
  KCC2 pThr1007 (μM) Iso: 1 μM
pNKCC1
  reduction of IVH-induced expression of pNKCC1: 69±4.3%
